# Measurements as given in patent publication US20040214850A1, “1-glyoxylamide indolizines for treating cancer” (Synta Pharmaceuticals Corp., priority 2001, published 2004).
# Columns and labels:
# [1] = tested on: HL-60/TX1000 (multi-drug resistant human myeloid leukemia cell line); assay: In vitro activity against multi-drug resistant cell line HL-60/TX1000; format: cell-based; conditions: HL60/TX1000, HL-60/TX1000 MDR cells (Table 2)
# Experimental: (§1) The cell lines were maintained in RPMI1640 (GIBCO) supplemented with 10% FCS, 100 units/ml penicillin, 100 ug/ml streptomycin, and 2 mM L-glutamine. The cells were split every third day and diluted to a concentration of 2×10^5 cells/ml one day before experiment. All experiments were performed on exponentially growing cell culture. Cell densities were 2.5×10^4 cells/ml in all experiment.
# (§2) A stock solution of Compound (1) and a stock solution of Taxol (positive control) were prepared by dissolving the compound at a concentration of 1 mM in 100% DMSO. Final concentrations were obtained by diluting the stock solution directly into the tissue culture medium. Cells were incubated with varying concentrations of the compounds for 72 hours and the IC50 was determined by MTS (i.e. 3-(4,5,-dimethylthiazol-2-yl)-2,5-diphenyl tetrazolium bromide) assay. IC50 stands for the concentration of compound required to inhibit 50% tumor cell growth.
# (§3) In vitro activity was determined in two MDR (Multi Drug Resistant) human cancer cell lines. HL-60/TX1000 was isolated in vitro by subculturing HL-60 in progressively higher concentration of Taxol. HL-60/TX1000 cells over-express mdr-1 mRNA and p-glycoprotein, as determined by western blot and immunofluorescence labeling with antiPGP antibodies. The cell is cross-resistant to Taxol, Vincristine, Adriamycin, Etoposide and Doxorubicin. MES-SA/Dx5 was established in the presence of increasing concentrations of Doxorubicin. […] MES-SA/Dx5 was purchased from ATCC.
# (§4) The procedure for culturing the cells and assaying cancer cell growth inhibition were as described in Example 3.
# [2] = tested on: MES-SA (human uterine sarcoma); assay: In vitro anti-cancer activity, MTS growth inhibition assay, MES-SA; format: cell-based; conditions: MES-SA cells, 72 hours, MTS assay (Table 1), read-out: IC50
# Experimental: (§5) The in vitro activity of the compounds was determined in the following seven human cancer cell lines. MDA435 (human breast cancer), MIP101 (human colon cancer), HL-60 (human myeloid leukemia), U937 (human leukemia), p388 (murine leukemia), DU-145 (human prostate cancer), MES-SA (human uterine sarcoma) were obtained from ATCC (American Type of Culture Collection).
# as §1, §2
# The protocol described in Examples 9-10 was used to assay inhibition by Compounds (20) (21) (24) and (28) on the growth of cancer cell lines MES-SA (human uterine sarcoma cell line) and DU-145 (human prostate cancer).
# [3] = tested on: HL-60 (human myeloid leukemia); assay: In vitro anti-cancer activity, MTS growth inhibition assay, HL-60; format: cell-based; conditions: HL-60 cells, 72 hours
# Experimental: as §5, §1, §2
# p388 (murine leukemia) = assay: In vitro anti-cancer activity, MTS growth inhibition assay, p388; format: cell-based; conditions: Mus musculus, p388 cells, 72 hours
# Experimental: as §5, §1, §2
# [4] = Body weight of nude mice bearing MDA435 tumor during treatment; format: in vivo, nude mice (CD-1 nu/nu); conditions: 25 and 50 mg/kg orally
# Experimental: The in vivo anti-cancer efficacy of Compound (1) was assessed in tumor bearing mice using a tumor growth inhibition assay. Human breast tumor (MDA-435) cells were implanted by injection of a tumor cell suspension subcutaneously in the flank of a nude mouse. Treatment of the tumor with an experimental compound began after the tumor had been established (volume was approximately 100 mm^3). The animal then began a multiple injection schedule where the compound was administered orally. Tumors were measured two times a week. During the course of this assay, animals were monitored daily for signs of toxicity including body weight loss.
# A dosing solution for compound administration was prepared by dissolving 1 gram of Compound (1) in 10 ml of acetone (HPLC grade), and sonicated for 5 minutes using 550 Sonic Dismembrator. 1.2 equivalents of 1 N HCl aqueous solution were added to the acetone solution which was then sonicated for 5 minutes. All solvent was then evaporated from the solution by using Speed Vac Plus SC 250 DDA over night. The dried powder was used for preparing the dosing solution of Compound (1). 1% Methyl cellulose (MC) vehicle was prepared by dissolving 1.0 gram of Methyl cellulose, 400 cps, U.S.P. (Spectrum Laboratory Products, Cat. # ME136) in 100 mL of H2O. This mixture was then stirred for 12 hours at room temperature to produce a clear 1% MC solution. […]
# [5] = tested on: MDR cell lines (MES-SA/DX5, HL-60/TX1000); assay: in vitro activity over the two MDR cell lines; format: cell-based, human; conditions: MES-SA/DX5, HL-60/TX1000; in words
# Experimental: as §1, §2, §3, §4
smiles,measurement,setting,value
"Cc1cc(NC(=O)C(=O)c2cc(Cc3ccc(C#N)cc3)n3ccccc23)sn1 [Compound (1), 2-(3-(4-cyanobenzyl)-indolizin-1-yl)-N-(3-methyl-isothiazol-5-yl)-2-oxo-acetamide]",IC50,[1],20 nM
same,IC50,[2],10 nM
same,IC50,[3],10 nM
same,IC50,p388 (murine leukemia),10 nM
same,body weight change,[4]; FIG. 2,without showing significant body weight loss
same,body weight change,"[4]; FIG. 2, listed as Compound 1",Little or no change in body weight
same,anti-cancer activity against MDR cancer cell lines,[5],high anti-cancer activity
